Data taken from patent publication US20230077723A1, “N-SUBSTITUTED-3,4-(FUSED 5-RING)-5-PHENYL-PYRROLIDINE-2-ONE COMPOUNDS AS INHIBITORS OF ISOQC AND/OR QC ENZYME” (Scenic Immunology B.V., priority 2019, published 2023).
Read-outs that look alike come from different tables or passages of the source.

System: pyroglutamylated CD47 (pE-CD47) in KBM7 cells
Assay: Assay 6 - cell-based potency assay (pE-CD47 CC2C6 staining vs total CD47)
Design: species or system human
Conditions: CC2C6 signal
Experimental: Cells were spun for 4 minutes at 1500 rpm and washed once with PBS/0.5% BSA. Cells were spun down again and the supernatant was removed and incubated in 100 uL antibody staining solution (PBS/0.5% BSA/0.1 μg/mL DAPI (4′,6-diamidino-2-phenylindole, ThermoFisher Scientific) and a mixture of 1:500 FITC-conjugated anti-human CD47 clone 2D3, which recognizes total CD47 irrespective of its pyroglutamylation state, and 1:500 Alexa647-conjugated anti-human CD47 clone CC2C6, which specifically detects pyroglutamylated CD47) for 2 hours at 4° C. Next, the cells were spun down and washed twice with 2×150 μL PBS/0.5% BSA to remove unbound antibody. Cells were again spun down and taken up in 300 μL FACS buffer before analysis on a Celesta FACS machine (BD Biosciences).
KBM7 cells (Kotecki et al., 1999) were infected with lentivirus produced by transfecting pSCNC-LentiCRISPR-QPCTL or pSCNC-LentiCRISPR-CD47 into HEK-293T cells according to standard protocols. After 24 hours incubation, cells were selected with puromycin (Invivogen, 1 μg/mL) for 48 hours. Cells were stained for total CD47 and pE-CD47 and QPCTL k.o. cells were sorted out as negative for pE-CD47, and CD47 k.o. cells as negative for total CD47, using a FACSAria III and FACS Diva software (BD Biosciences).
In order to test compounds for their effect on pyroglutamylation in live cells, 25000 KBM7 cells per well were seeded in a 96-well U-bottom plate in 150 μl IMDM/10% FCS/1% Pen/Strep medium and a 10-point 2-fold dilution range of test compounds. After 72 hours incubation at 37° C., 5% CO2, cells were stained for total CD47 and pE-CD47 and analyzed on a BD Celesta using FACS Diva software (BD Biosciences). Cells gated for DAPI negativity were recorded and the median fluorescence intensity (MFI) of each sample was transformed to linearly scale between the MFI's of wildtype and CD47 knockout cells (in case of the 2D3 antibody) and the wildtype and QPCTL knockout cells (in case of the CC2C6 antibody). IC50's were calculated by 3 parameter logistic regression of the CC2C6 signal vs. compound concentration, where the top of the sigmoidal curve was fixed at 1, using R and the drc package (http://www.r-project.org, https://cran.r-project.org/web/packages/drc/index.html).

[1] = Homo sapiens, KBM-7, 72 h, Table 2, read-out: Cell Potency Assay 6 (Comparison Data)
[2] = Homo sapiens, KBM-7, 72 h, read-out: Cell Pot. Assay No. 6
[3] = 72 hours, read-out: Cell Pot. Assay No. 6

Compound	IC50 [2] [µM]	other results
CCCOc1ccc(C2c3c(nn(C)c3C)C(=O)N2c2ccc3nnn(C)c3n2)cc1 (racemic) [REF-007, reference compound]	–	IC50 [1]: > 6.25 µM
Cc1c2c(nn1C)C(=O)N(c1ccc3[nH]cnc3c1)C2c1ccc(N2CCS(=O)(=O)CC2)cc1F (stereo not shown) [FRPPO-105]	5 to 50	–
Cc1c2c(nn1C)C(=O)N(c1ccc3[nH]cnc3c1)C2c1ccc(N2CCNC(C)C2)cc1F (stereo not shown) [FRPPO-082]	5 to 50	–
Cc1nc2c(s1)C(=O)N(c1ccc3[nH]cnc3c1)C2c1ccc(Cl)cc1F (stereo not shown) [FRPPO-058]	5 to 50	–
Cc1c2c(nn1C)C(=O)N(c1ccc3[nH]cnc3c1)C2c1cccc(C2CCN(C)CC2)c1F (stereo not shown) [FRPPO-155]	5 to 50	–
Cc1nn(C)c2c1C(c1ccc(N3CCC(F)(F)C3)c(F)c1F)N(c1ccc3[nH]cnc3c1)C2=O (stereo not shown) [FRPPO-169]	1 to 5	–
Cc1c2c(nn1C)C(=O)N(c1ccc3[nH]cnc3c1)C2c1ccc(N2CC3CCC(C2)O3)cc1F (stereo not shown) [FRPPO-096]	< 1	–
Cc1[nH]nc2c1C(c1ccc(-c3csc(C(F)(F)F)n3)cc1F)N(c1ccc3[nH]cnc3c1)C2=O (stereo not shown) [FRPPO-147]	< 1	–
Cc1c2c(nn1C)C(=O)N(c1ccc3[nH]cnc3c1)C2c1ccc(C#N)cc1F (stereo not shown) [FRPPO-069]	1 to 5	–
Cn1nc(C2CC2)c2c1C(=O)N(c1ccc3[nH]cnc3c1)C2c1ccc(N2CCC(F)(F)C2)cc1 (stereo not shown) [FRPPO-168]	1 to 5	–
Cc1c2c(nn1C)C(=O)N(c1ccc3[nH]cnc3c1)C2c1ccc(N2CC(F)C2)cc1F (stereo not shown) [FRPPO-072]	< 1	–
Cc1c2c(nn1C)C(=O)N(c1ccc3[nH]cnc3c1)C2c1ccc(N2CC3(CCOC3)C2)cc1F (stereo not shown) [FRPPO-095]	1 to 5	–
Cc1c2c(nn1C)C(=O)N(c1ccc3[nH]cnc3c1)C2c1ccc(N2CCC3(CCOC3)C2)cc1F (stereo not shown) [FRPPO-104]	< 1	–
Cc1c2c(nn1C)C(=O)N(c1ccc3[nH]cnc3c1)C2c1ccc(N2CCC(F)C2)cc1F (stereo not shown) [FRPPO-073]	1 to 5	–
Cc1c2c(nn1C)C(=O)N(c1ccc3[nH]cnc3c1)C2c1ccc(N2CCCC(O)C2)cc1F (stereo not shown) [FRPPO-086]	1 to 5	–
Cc1c2c(nn1C)C(=O)N(c1ccc3[nH]cnc3c1)C2c1ccc(N2CCOCC2)cc1F (stereo not shown) [FRPPO-078]	< 1	–
Cc1nn(C)c2c1C(=O)N(c1ccc3[nH]cnc3c1)C2c1ccc(N2CCC(F)(F)C2)cc1F (stereo not shown) [FRPPO-049]	< 1	–
Cc1c2c(nn1C)C(=O)N(c1ccc3[nH]cnc3c1)C2c1ccc(N2CCN(S(C)(=O)=O)CC2)cc1F (stereo not shown) [FRPPO-111]	1 to 5	–
Cc1c2c(nn1C)C(=O)N(c1ccc3[nH]cnc3c1)C2c1ccc(N2CC(O)C(F)C2)cc1F (stereo not shown) [FRPPO-089]	1 to 5	–
Cc1c2c(nn1C)C(=O)N(c1ccc3[nH]cnc3c1)C2c1ccc(N2CCC(O)CC2)cc1F (stereo not shown) [FRPPO-085]	5 to 50	–
Cn1nc(C(F)(F)F)c2c1C(c1ccc(N3CCC(F)(F)C3)cc1F)N(c1ccc3[nH]cnc3c1)C2=O (stereo not shown) [FRPPO-050]	1 to 5	–

Compound	IC50 [2] [µM]	other results
CCCOc1ccc(C2c3c(nn(C)c3C)C(=O)N2c2ccc3nncn3n2)cc1 (racemic) [REF-005, reference compound]	–	IC50 [1]: ≥ 50 µM
Cc1c2c(nn1C)C(=O)N(c1ccc3[nH]cnc3c1)C2c1ccc(N2CCC(F)(F)C2)c(F)c1F (stereo not shown) [FRPPO-066]	–	IC50 [3]: 1 to 5 µM
Cc1c2c(nn1C)C(=O)N(c1ccc3[nH]cnc3c1)C2c1ccc(N2CCC2)cc1F (stereo not shown) [FRPPO-070]	1 to 5	–
O=C1c2scnc2C(c2ccc(Cl)cc2F)N1c1ccc2[nH]cnc2c1 (stereo not shown) [FRPPO-057]	5 to 50	–
Cc1nn(C)c2c1C(c1ccc(-n3cc(C(F)(F)F)cn3)cc1)N(c1ccc3[nH]cnc3c1)C2=O (stereo not shown) [FRPPO-174]	1 to 5	–
Cc1c2c(nn1C)C(c1ccc(N3CCC(F)(F)C3)cc1F)N(c1ccc3[nH]cnc3c1)C2=O (stereo not shown) [FRPPO-046]	5 to 50	–
Cc1c2c(nn1C)C(=O)N(c1ccc3[nH]cnc3c1)C2c1ccc(-c2ccc(OC(F)(F)F)nc2)cc1F (stereo not shown) [FRPPO-142A]	< 1	–
Cc1c2c(nn1C)C(=O)N(c1ccc3[nH]cnc3c1)C2c1ccc(N2CCC[C@H]2C)cc1F (stereo partly shown) [FRPPO-115A]	< 1	–
Cn1nc2c(c1CO)C(c1ccc(N3CCC(F)(F)C3)cc1F)N(c1ccc3[nH]cnc3c1)C2=O (stereo not shown) [FRPPO-157]	< 1	–
Cc1[nH]nc2c1C(c1ccc(-n3cc(C(F)(F)F)cn3)cc1F)N(c1ccn3ccnc3c1)C2=O (stereo not shown) [FRPPO-198]	< 1	–
CCCOc1ccc(C2c3c(nn(C)c3C)C(=O)N2c2cc(NC)c3nnc(C)n3n2)cc1 (racemic) [REF-008, reference compound]	–	IC50 [1]: ≥ 50 µM
Cc1c2c(nn1C)C(=O)N(c1ccc3[nH]cnc3c1)C2c1ccc(N2CC3CC2CO3)cc1F (stereo not shown) [FRPPO-081]	1 to 5	–
CC(C)c1[nH]nc2c1C(c1ccc(N3CCC(F)(F)C3)cc1F)N(c1ccc3[nH]cnc3c1)C2=O (stereo not shown) [FRPPO-153]	< 1	–
Cc1nc2c(s1)C(c1ccc(N3CCC(F)(F)C3)cc1F)N(c1ccc3[nH]cnc3c1)C2=O (stereo not shown) [FRPPO-061]	1 to 5	–
CCCOc1ccc(C2c3c(nn(C)c3C)C(=O)N2c2cc(C)c3nnc(C)n3n2)cc1 (racemic) [REF-006, reference compound]	–	IC50 [1]: > 6.25 µM
Cc1c2c(nn1C)C(c1ccc(Br)cc1F)N(c1ccc3[nH]cnc3c1)C2=O (stereo not shown) [FRPPO-047]	5 to 50	–
Cc1c2c(nn1C)C(=O)N(c1ccn3ccnc3c1)C2c1ccc(N2CCOC(C)C2)cc1F (stereo not shown) [FRPPO-197]	< 1	–
Cc1c2c(nn1C1CC1)C(=O)N(c1ccc3[nH]cnc3c1)C2c1ccc(N2CCC(F)(F)C2)cc1F (stereo not shown) [FRPPO-127B]	< 1	–
Cc1c2c(nn1C)C(=O)N(c1ccc3[nH]cnc3c1)C2c1ccc(N2CC3CC(C2)O3)cc1F (stereo not shown) [FRPPO-077]	1 to 5	–
COC(=O)N1CCN(c2ccc(C3c4c(nn(C)c4C)C(=O)N3c3ccc4[nH]cnc4c3)c(F)c2)CC1 (stereo not shown) [FRPPO-107]	1 to 5	–
Cc1c2c(nn1C)C(=O)N(c1ccc3[nH]cnc3c1)C2c1ccc(N2CCC23COC3)cc1F (stereo not shown) [FRPPO-079]	1 to 5	–

Compound	IC50 [2] [µM]	other results
CCCOc1ccc(C2c3c(nn(C)c3C)C(=O)N2c2ccc3nnc(C)n3c2)cc1 (racemic) [REF-003, reference compound]	–	IC50 [1]: ≥ 50 µM
Cc1c2c(nn1C)C(=O)N(c1ccc3[nH]cnc3c1)C2c1ccc(N2CCOC[C@H]2C)cc1F (stereo partly shown) [FRPPO-113B]	< 1	–
Cc1c2c(nn1C1CC1)C(=O)N(c1ccc3[nH]cnc3c1)C2c1ccc(N2CCC(C(F)(F)F)CC2)cc1F (stereo not shown) [FRPPO-136]	< 1	–
Cc1c2c(nn1C)C(=O)N(c1ccc3[nH]cnc3c1)C2c1ccc(N2CCC3(COC3)C2)cc1F (stereo not shown) [FRPPO-097]	< 1	–
Cc1[nH]nc2c1C(c1ccc(N3CCC(F)(F)C3)cc1F)N(c1ccc3[nH]cnc3c1)C2=O (stereo not shown) [FRPPO-126C]	–	IC50 [3]: < 1 µM
Cn1ncc2c1C(c1ccc(Cl)cc1F)N(c1ccc3[nH]cnc3c1)C2=O (stereo not shown) [FRPPO-051]	1 to 5	–
CC(O)c1c2c(nn1C)C(=O)N(c1ccc3[nH]cnc3c1)C2c1ccc(N2CCC(F)(F)C2)cc1F (stereo not shown) [FRPPO-156]	< 1	–
Cc1[nH]nc2c1C(c1ccc(-c3cnc(C(F)(F)F)s3)cc1F)N(c1ccc3[nH]cnc3c1)C2=O (stereo not shown) [FRPPO-145]	< 1	–
Cn1nc(C(F)(F)F)c2c1C(c1ccc(Cl)cc1F)N(c1ccc3[nH]cnc3c1)C2=O (stereo not shown) [FRPPO-053]	5 to 50	–
Cc1nc2c(s1)C(c1ccc(Cl)cc1F)N(c1ccc3[nH]cnc3c1)C2=O (stereo not shown) [FRPPO-064]	5 to 50	–
Cc1nn(C)c2c1C(=O)N(c1ccc3[nH]cnc3c1)C2c1ccc(Cl)cc1F (stereo not shown) [FRPPO-052]	5 to 50	–
Cc1c2c(nn1C1CC1)C(=O)N(c1ccc3[nH]cnc3c1)C2c1ccc(N2CCC(F)(F)CC2)cc1F (stereo not shown) [FRPPO-137]	< 1	–
Cc1[nH]nc2c1C(c1ccc(N3CCC(F)(F)C3)cc1F)N(c1ccc3[nH]cnc3c1)C2=O (stereo not shown) [FRPPO-126B]	1 to 5	–
CCCOc1ccc(C2c3c(nn(C)c3C)C(=O)N2c2cc(C)c3nnc(C)n3c2)cc1 (racemic) [REF-004, reference compound]	–	IC50 [1]: ≥ 50 µM
Cc1c2c(nn1C)C(=O)N(c1ccc3[nH]cnc3c1)C2c1ccc(-n2cc(C(F)(F)F)cn2)cc1F (stereo not shown) [FRPPO-150A]	< 1	–
Cc1c2c(nn1C)C(=O)N(c1ccc3[nH]cnc3c1)C2c1ccc(NCCC(F)(F)F)cc1F (stereo not shown) [FRPPO-092]	< 1	–
Cc1c2c(nn1C)C(=O)N(c1ccc3[nH]cnc3c1)C2c1ccc(N2CCO[C@@H](C)C2)cc1F (stereo partly shown) [FRPPO-114A]	< 1	–
CCCOc1ccc(C2c3c(nn(C)c3C)C(=O)N2c2ccc3nnn(C)c3c2)cc1 (racemic) [REF-001, reference compound]	–	IC50 [1]: > 6.25 µM
Cc1c2c(nn1C)C(=O)N(c1ccc3[nH]cnc3c1)C2c1ccc(N2CCOC[C@@H]2C)cc1F (stereo partly shown) [FRPPO-113A]	< 1	–
